Results reported in ChEMBL document CHEMBL1141153, “A molecular target for suppression of the evolution of antibiotic resistance: inhibition of the Escherichia coli RecA protein by N(6)-(1-naphthyl)-ADP” (J Med Chem, 2005).

Target: T1, Protein RecA (Escherichia coli K-12) (UniProt P0A7G6)
T1 sequence (whole entry): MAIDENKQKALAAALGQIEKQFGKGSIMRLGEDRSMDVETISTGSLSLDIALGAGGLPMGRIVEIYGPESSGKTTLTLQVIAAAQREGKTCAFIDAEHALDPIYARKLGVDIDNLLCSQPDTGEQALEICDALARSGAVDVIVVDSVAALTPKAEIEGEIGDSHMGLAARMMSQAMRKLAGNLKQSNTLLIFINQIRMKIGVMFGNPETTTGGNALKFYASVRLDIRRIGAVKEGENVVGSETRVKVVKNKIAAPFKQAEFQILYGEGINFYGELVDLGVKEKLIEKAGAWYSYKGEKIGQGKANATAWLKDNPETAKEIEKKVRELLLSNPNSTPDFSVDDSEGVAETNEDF
Test: In vitro apparent inhibition constant against Escherichia coli RecA protein

Kic: 46 µM
SMILES: O=P(O)(O)OP(=O)(O)OC[C@H]1O[C@@H](n2cnc3c(Nc4cccc5ccccc45)ncnc32)[C@H](O)[C@@H]1O
